The supplement of paper PMC10331698
± gives the standard deviation of the averaged measurements.

How the values were obtained:
Experiment in all cases: level (log10 ratio to DMSO vehicle control); higher = higher biomarker level / cell amount than vehicle control
Settings in all cases: in DMSO
[1] = compound: FC(F)(F)C(F)(F)C(F)(F)CC1CO1 [1H,1H-Heptafluorobutyl epoxide]
Method: (§1)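 BioMAP Diversity Plus panel of 12 human primary cell co-culture systems (3C, 4H, LPS, SAg, BT, BF4T, BE3C, CASM3C, HDF3CGF, KF3CT, MyoF, Mphg). Compounds were added 1 h before stimulation and left for 24 h (MyoF 48 h; BT 72 h for soluble read-outs or 6 d for IgG). Biomarkers were read by ELISA, cytotoxicity by SRB, PBMC viability and proliferation by Alamar Blue. Each well value was divided by the mean of 8 DMSO control wells on the same plate and log10 transformed; duplicate blinded samples were tested at 4 concentrations.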

Heptafluorobutyl iodide = compound: FC(F)(F)C(F)(F)C(F)(F)CI [Heptafluorobutyl iodide]
Method: as §1

[2] = compound: FC(F)(F)C(F)(F)CNCC(F)(F)C(F)(F)F [Bis(1H,1H-perfluoropropyl)amine]
Method: as §1

[3] = compound: NC(=O)C(F)(F)C(F)(F)C(F)(F)C(F)F
Method: as §1

[4] = compound: O=C(O)C(F)(F)C(F)(F)C(F)(F)C(F)(F)C(F)(F)C(F)(F)C(F)(F)C(F)(F)C(F)(F)C(F)F [11-H-Perfluoroundecanoic acid]
Method: as §1

[5] = compound: O=S(=O)(Cl)C(F)(F)C(F)(F)C(F)(F)C(F)(F)C(F)(F)C(F)(F)C(F)(F)C(F)(F)F [Perfluoro-1-octanesulfonyl chloride]
Method: as §1

[6] = compound: O=S(=O)(F)C(F)(F)C(F)(F)C(F)(F)C(F)(F)C(F)(F)C(F)(F)C(F)(F)C(F)(F)F [Perfluorooctanesulfonyl fluoride]
Method: as §1

Test System	level (log10) ([1]; 6700 nM)	level (log10) ([1]; 20000 nM)	level (log10) ([1]; 60000 nM)	level (log10) (Heptafluorobutyl iodide; 6700 nM)	level (log10) (Heptafluorobutyl iodide; 20000 nM)	level (log10) (Heptafluorobutyl iodide; 60000 nM)	level (log10) ([2]; 6700 nM)	level (log10) ([2]; 20000 nM)	level (log10) ([2]; 60000 nM)	level (log10) ([3]; 6700 nM)	level (log10) ([3]; 20000 nM)	level (log10) ([3]; 60000 nM)	level (log10) ([4]; 6700 nM)	level (log10) ([4]; 20000 nM)	level (log10) ([5]; 6700 nM)	level (log10) ([5]; 20000 nM)	level (log10) ([5]; 60000 nM)	level (log10) ([6]; 6700 nM)	level (log10) ([6]; 20000 nM)	level (log10) ([6]; 60000 nM)
LPS:SRB	0.0085 ± 0.013	0.002	-0.005 ± 0.0071	-0.0035 ± 0.0021	-0.0095 ± 0.0021	0.0045 ± 0.021	-0.008 ± 0.0042	0.001 ± 0.016	-0.0015 ± 0.0021	-0.011 ± 0.0071	-0.006 ± 0.0042	-0.0105 ± 0.00071	0.0045 ± 0.013	0.0055 ± 0.005	0.0035 ± 0.0035	0.005 ± 0.0028	-0.043 ± 0.023	-0.008 ± 0.0071	-0.0025 ± 0.0064	-0.002 ± 0.013
LPS:CD69	-0.012 ± 0.031	-0.0365 ± 0.029	0.0095 ± 0.018	-0.0635 ± 0.011	-0.054 ± 0.013	-0.021 ± 0.048	0.016 ± 0.028	0.0075 ± 0.053	0.03 ± 0.09	0.006 ± 0.027	0.021 ± 0.035	0.0225 ± 0.061	-0.024	-0.057	-0.0255 ± 0.069	-0.032 ± 0.0071	-0.047 ± 0.052	-0.019 ± 0.031	-0.0135 ± 0.0092	-0.0335 ± 0.011
BF4T:IL-1alpha	0.0165 ± 0.015	0.0095 ± 0.016	0.0355 ± 0.053	-0.017 ± 0.016	-0.0125 ± 0.0035	-0.015 ± 0.05	-0.007 ± 0.014	-0.0135 ± 0.015	0.0105 ± 0.049	-0.0175 ± 0.021	-0.004 ± 0.0028	-0.002 ± 0.0057	0.025 ± 0.027	-0.0955 ± 0.026	-0.0015 ± 0.0092	-0.0045 ± 0.005	-0.0925 ± 0.005	-0.0005 ± 0.0064	-0.0015 ± 0.00071	0.0155 ± 0.021
BF4T:Keratin 8/18	-0.001 ± 0.011	-0.0025 ± 0.0064	-0.0235 ± 0.0078	-0.022 ± 0.014	-0.0265 ± 0.0035	-0.0045 ± 0.039	-0.0075 ± 0.0064	-0.019 ± 0.013	0.015 ± 0.03	0.004 ± 0.042	0.005 ± 0.011	0.0135 ± 0.026	-0.0025 ± 0.011	-0.062 ± 0.0085	0.0075 ± 0.00071	0.0125 ± 0.00071	-0.0805 ± 0.035	0.0285 ± 0.033	0.003 ± 0.016	0.0335 ± 0.0092
BF4T:SRB	-0.004 ± 0.0057	0.0005 ± 0.005	0.0025 ± 0.005	0.001 ± 0.0028	-0.002 ± 0.0071	0.0015 ± 0.0064	-0.004 ± 0.0071	-0.0065 ± 0.0064	0.0005 ± 0.0078	-0.0075 ± 0.00071	-0.0125 ± 0.011	-0.0025 ± 0.0078	-0.012 ± 0.0014	-0.103 ± 0.0092	-0.0015 ± 0.005	-0.011 ± 0.0014	-0.251 ± 0.0085	-0.0025 ± 0.0035	-0.002 ± 0.0042	0.0145 ± 0.025
BT:sIL-2	-0.0245 ± 0.0092	-0.055 ± 0.15	0.022 ± 0.18	0.001 ± 0.071	0.0735 ± 0.028	-0.027 ± 0.058	-0.011 ± 0.064	0.012 ± 0.064	0.0645 ± 0.1	0.002 ± 0.058	-0.056 ± 0.051	0.04 ± 0.0099	-0.0265 ± 0.013	-0.008 ± 0.083	0.0385 ± 0.047	0.104 ± 0.042	0.13 ± 0.018	-0.038 ± 0.058	-0.001 ± 0.042	0 ± 0.1
BF4T:CXCL8/IL-8	0.023 ± 0.041	0.0165 ± 0.03	0.0325 ± 0.05	0.0085 ± 0.029	0.061 ± 0.11	0.0505 ± 0.063	-0.0295 ± 0.013	-0.027 ± 0.0028	-0.0105 ± 0.021	0 ± 0.0071	-0.0105 ± 0.005	-0.009 ± 0.0071	0.0575 ± 0.019	0.0005 ± 0.026	0.002 ± 0.024	0.0225 ± 0.012	-0.009 ± 0.018	0.0175 ± 0.011	0.015 ± 0.0028	0.0355 ± 0.005
BE3C:CD87/uPAR	0.0105 ± 0.0092	-0.004 ± 0.024	-0.004 ± 0.023	0.0115 ± 0.033	-0.0435 ± 0.016	-0.001 ± 0.0057	-0.0335 ± 0.049	-0.0475 ± 0.06	-0.012 ± 0.018	-0.02 ± 0.011	-0.0205 ± 0.0035	-0.0145 ± 0.015	0.0235 ± 0.026	-0.264 ± 0.019	0.0825 ± 0.025	0.0795 ± 0.0064	-0.276 ± 0.052	-0.0005 ± 0.011	0.0155 ± 0.00071	0.0375 ± 0.0064
SAg:SRB	0.0065 ± 0.026	-0.0065 ± 0.0092	-0.0115 ± 0.011	-0.007 ± 0.0099	-0.001 ± 0.0042	0.002 ± 0.011	-0.012 ± 0.0028	-0.001 ± 0.017	0.0035 ± 0.0035	-0.0225 ± 0.0035	-0.02 ± 0.0028	-0.015 ± 0.021	0.0155 ± 0.005	0.0035 ± 0.011	-0.001 ± 0.0042	-0.0045 ± 0.011	-0.107 ± 0.033	0.0055 ± 0.0064	0.0005 ± 0.0021	0.0015 ± 0.0035
LPS:CXCL8/IL-8	-0.019 ± 0.031	-0.0135 ± 0.028	0.003 ± 0.031	0.022 ± 0.13	0.042 ± 0.076	0.087 ± 0.0071	-0.0185 ± 0.005	-0.0325 ± 0.037	0.017 ± 0.099	-0.0055 ± 0.0035	-0.0025 ± 0.035	0.016 ± 0.12	-0.0065 ± 0.023	0.016 ± 0.011	-0.005 ± 0.013	0.0425 ± 0.0092	0.159 ± 0.0057	0.012 ± 0.027	0.011 ± 0.0099	-0.0015 ± 0.005
SAg:Proliferation	-0.0295 ± 0.059	0.017 ± 0.059	0.055 ± 0.054	-0.056 ± 0.037	0.029 ± 0.028	-0.072 ± 0.0042	-0.0275 ± 0.012	-0.0025 ± 0.052	0.0295 ± 0.076	-0.0135 ± 0.018	0.0105 ± 0.0064	0.033 ± 0.018	-0.0145 ± 0.03	0.019 ± 0.0071	0.0235 ± 0.044	0.0205 ± 0.04	0.0395 ± 0.036	-0.0275 ± 0.0035	-0.0095 ± 0.049	0.0025 ± 0.019
